Series [1] has as its system RG2. In words: Induction of DNA damage in rat RG2 cells assessed as H2A.X phosphorylation at ser139 at 112.4 uM after 48 hrs by Western blot analysis (reference value: 1). The series is classed as functional.
Series [2] concerns RG2. In words: Synergistic cytotoxicity against rat RG2 cells assessed as synergistic effect index at 89.9 uM after 48 hrs in presence of 103 uM TMZ by MTT assay. Type of series: functional. In general terms: Tetrazolium assays rely on reduction of a dye to a coloured formazan, in cell work by metabolically active cells.
The test system of series [3] is DBTRG-05MG. In words: Induction of apoptosis in human DBTRG-05MG cells assessed as phosphorylated caspace-3 expression at 112.4 uM after 48 hrs in presence of TMZ by Western blot analysis (reference value: 1). The series is classed as functional.
Series [4] in a line: Effect on JNK expression in rat RG2 cells at 112.4uM after 48 hrs by Western blot analysis (reference value: 1). The series is classed as functional. Background: A western blot detects proteins with antibodies after separation by electrophoresis.
A short description of series [5]: Synergistic cytotoxicity against rat CTX TNA2 cells assessed as combination index at 89.9 uM after 48 hrs in presence of 103 uM TMZ by MTT assay. The series is classed as cell-based. The note with it: ctx tna2, 48 h.
For series [6], the system named is DBTRG-05MG. The experiment in a line: Induction of cell cycle arrest in human DBTRG-05MG cells assessed as accumulation at S phase at 112.4 uM after 48 hrs by propidium iodide staining based flow cytometric analysis (reference value: 22.76 +/- 1.56%). The series is classed as functional. A general note: A flow cytometer gives signals particle by particle.
For series [7], the system named is RG2. The experiment in a line: Synergistic cytotoxicity against rat RG2 cells assessed as combination index at 89.9 uM after 48 hrs in presence of 206 uM TMZ by MTT assay. Type of series: functional.
Series [8] relates to DBTRG-05MG. The experiment in a line: Synergistic cytotoxicity against human DBTRG-05MG cells assessed as combination index at 89.9 uM after 48 hrs in presence of 103 uM TMZ by MTT assay. The series is classed as functional.
Series [9] relates to RG2. The experiment in a line: Induction of cell cycle arrest in rat RG2 cells assessed as CyclinD1 expression at 112.4 uM after 48 hrs by Western blot analysis (reference value: 1). The series is classed as functional.
The test system of series [10] is DBTRG-05MG. The experiment in a line: Synergistic cytotoxicity against human DBTRG-05MG cells assessed as synergistic effect index at 134.9 uM after 48 hrs in presence of 309 uM TMZ by MTT assay. The series is classed as functional.
For series [11], the system named is DBTRG-05MG. The experiment in a line: Synergistic cytotoxicity against human DBTRG-05MG cells assessed as combination index at 112.4 uM after 48 hrs in presence of 515.1 uM TMZ by MTT assay. The series is classed as functional.
Series [12] in a line: Inhibition of TMZ-induced drug resistance in human DBTRG-05MG cells assessed as MGMT expression at 112.4 uM after 48 hrs by Western blot analysis (reference value: 1.3). The series is classed as functional.
Series [13] has as its system DBTRG-05MG. The experiment in a line: Induction of apoptosis in human DBTRG-05MG cells assessed as increase in chromatin condensation at 112.4 uM after 48 hrs by TUNEL assay. The series is classed as functional, cell-based.
The subject of series [14] is DBTRG-05MG. The experiment in a line: Induction of cell cycle arrest in human DBTRG-05MG cells assessed as CDK2 expression at 112.4uM after 48 hrs by Western blot analysis (reference value: 1). The series is classed as functional.
The subject of series [15] is RG2. In words: Induction of cell cycle arrest in rat RG2 cells assessed as CDK2 expression at 112.4uM after 48 hrs by Western blot analysis (reference value: 1). Type of series: functional.
Series [16] in a line: Synergistic cytotoxicity against rat CTX TNA2 cells assessed as combination index at 134.9 uM after 48 hrs in presence of 412.1 uM TMZ by MTT assay. The note with it: ctx tna2, 48 h. The series is classed as cell-based.
For series [17], the system named is DBTRG-05MG. The experiment in a line: Synergistic cytotoxicity against human DBTRG-05MG cells assessed as combination index at 134.9 uM after 48 hrs in presence of 309 uM TMZ by MTT assay. Type of series: functional.
A short description of series [18]: Inhibition of TMZ-induced drug resistance in rat RG2 cells assessed as MGMT expression at 112.4 uM after 48 hrs by Western blot analysis (reference value: 2). The series is classed as functional.
The subject of series [19] is DBTRG-05MG. In words: Synergistic cytotoxicity against human DBTRG-05MG cells assessed as combination index at 112.4 uM after 48 hrs in presence of 206 uM TMZ by MTT assay. The series is classed as functional.
The subject of series [20] is DBTRG-05MG. In words: Potentiation of TMZ-induced antitumor activity against human DBTRG-05MG cells xenografted in BALB/c nude mouse assessed as reduction in tumor growth at 75 mg/kg, sc co-treated with TMZ for 18 days by PCNA staining-based bright field microscopic analysis. Type of series: functional, organism-based. The note with it: time 18.0 day.
Series [21] has as its system RG2. In words: Synergistic cytotoxicity against rat RG2 cells assessed as synergistic effect index at 134.9 uM after 48 hrs in presence of 515.1 uM TMZ by MTT assay. Type of series: functional.
Series [22] can be described thus: Synergistic cytotoxicity against rat CTX TNA2 cells assessed as synergistic effect index at 134.9 uM after 48 hrs in presence of 309 uM TMZ by MTT assay. The series is classed as cell-based. The note with it: ctx tna2, 48 h.
Series [23] can be described thus: Synergistic cytotoxicity against rat CTX TNA2 cells assessed as synergistic effect index at 112.4 uM after 48 hrs in presence of 103 uM TMZ by MTT assay. Type of series: cell-based. The note with it: ctx tna2, 48 h.
Series [24] concerns RG2. In words: Inhibition of AKT phosphorylation at S473 residues in rat RG2 cells at 112.4uM after 48 hrs by Western blot analysis. The series is classed as cell-based.
The test system of series [25] is RG2. In words: Synergistic cytotoxicity against rat RG2 cells assessed as synergistic effect index at 89.9 uM after 48 hrs in presence of 515.1 uM TMZ by MTT assay. Type of series: functional.
The subject of series [26] is DBTRG-05MG. The experiment in a line: Induction of cell cycle arrest in human DBTRG-05MG cells assessed as accumulation at G2/M phase at 112.4 uM after 12 hrs by propidium iodide staining based flow cytometric analysis (reference value: 30.08 +/- 0.1%). The series is classed as functional.
Series [27] has as its system DBTRG-05MG. The experiment in a line: Induction of apoptosis in human DBTRG-05MG cells assessed as increase in apoptotic body formation at 112.4 uM after 48 hrs by TUNEL assay. Type of series: functional, cell-based.
The nature of series [28]: Toxicity in BALB/c mouse xenografted with DBTRG-05MG cells assessed as reduction in body weight at 75 mg/kg, sc for 18 days co-treated with TMZ. The note with it: in vivo, 432 h, time 18 day. Type of series: organism-based.
Series [29] deals with DBTRG-05MG. In words: Inhibition of JNK phosphorylation at Thr183/Tyr185 residues in human DBTRG-05MG cells at 206 uM after 48 hrs by Western blot analysis (reference value: 1). Type of series: cell-based.
Series [30] deals with RG2. In words: Induction of cell cycle arrest in rat RG2 cells assessed as CyclinD1 expression at 206 uM after 48 hrs by Western blot analysis (reference value: 1). The series is classed as functional.
Series [31] concerns RG2. The experiment in a line: Inhibition of ERK phosphorylation at Tyr204 residues in rat RG2 cells at 206 uM after 48 hrs by Western blot analysis (reference value: 1). The series is classed as cell-based.
Series [32] has as its system RG2. In words: Induction of DNA damage in rat RG2 cells assessed as ATM phosphorylation at ser1981 residues at 206 uM after 48 hrs by Western blot analysis (reference value: 1). Type of series: functional.
The subject of series [33] is DBTRG-05MG. The experiment in a line: Induction of apoptosis in human DBTRG-05MG cells assessed as increase in DNA fragmentation at 206 uM after 48 hrs by TUNEL assay. The series is classed as functional, cell-based.
For series [34], the system named is RG2. The experiment in a line: Inhibition of AKT phosphorylation at S473 residues in rat RG2 cells at 206 uM after 48 hrs by Western blot analysis. The series is classed as cell-based.
Series [35] concerns RG2. In words: Induction of cell cycle arrest in rat RG2 cells assessed as accumulation at G2/M phase at 206 uM after 24 hrs by propidium iodide staining based flow cytometric analysis (reference value: 20.04 +/- 0.55%). The series is classed as functional.

The source made the active and inactive calls. No cut-off for these calls is given here.

`C[C@@H]1CC[C@H]2C(C)(C)[C@H]3C[C@@]12CC[C@@]3(C)O` [CEDROL]: the “fold change (FC)” value in the series on RG2 [1] is listed as 1; in the series with DBTRG-05MG [3] it was 1.2; in [4], 0.8; in the series on RG2 [9] it was 1.4; in series [12], 0.8; with DBTRG-05MG [14], 0.7. Further, the “fold change (FC)” value in the series with RG2 [15] worked out at 0.7; in series [18] it was 0.5; in the series on RG2 [24], 0.8. Besides, the Activity_index in the series on RG2 [2] was determined as 0.65; in the series on DBTRG-05MG [10] it was 0.89; in the series with RG2 [21] it was 0.89; in [22] it was 0.52; in [23] it was 0.26; in the series on RG2 [25], 0.69. The CI in [5] is 1.24; in the series on RG2 [7], 0.98; with DBTRG-05MG [8], 0.74; in the series with DBTRG-05MG [11], 0.7; in series [16] it was 1.13; with DBTRG-05MG [17], 0.61. For the same compound, the CI with DBTRG-05MG [19] worked out at 0.5. Moreover, the Activity is reported as 18.04% in the series with DBTRG-05MG [6], 31.03% with DBTRG-05MG [26] and “Non-Toxic” in series [28]. For the same compound, the outcome with DBTRG-05MG [13], in the series with DBTRG-05MG [20] and in the series with DBTRG-05MG [27] was Active.

On to `Cn1nnc2c(C(N)=O)ncn2c1=O` [TEMOZOLOMIDE], for which the fold change (FC) with DBTRG-05MG [29] worked out at 1.2; in the series on RG2 [30], 1; in the series with RG2 [31] it was 0.7; with RG2 [32] it was 0.9; in the series on RG2 [34], 0.5. For the same compound, the result in the series on DBTRG-05MG [33] was Active. Moreover, in the series with RG2 [35], the Activity worked out at 31.81%.

These data come from ChEMBL document CHEMBL4699511, “Cedrol, a Sesquiterpene Alcohol, Enhances the Anticancer Efficacy of Temozolomide in Attenuating Drug Resistance via Regulation of the DNA Damage Response and MGMT Expression” (J Nat Prod, 2020).
